Data on 15 molecules can be found in US9580416B2, “Inhibitors of Bruton's tyrosine kinase” (PHARMACYCLICS LLC, priority 2014, dated 2017).

Type in all cases: biochemical
One assay deals with T1, JAK3 (Homo sapiens, UniProt P52333).
T1 sequence (P52333 1-1124): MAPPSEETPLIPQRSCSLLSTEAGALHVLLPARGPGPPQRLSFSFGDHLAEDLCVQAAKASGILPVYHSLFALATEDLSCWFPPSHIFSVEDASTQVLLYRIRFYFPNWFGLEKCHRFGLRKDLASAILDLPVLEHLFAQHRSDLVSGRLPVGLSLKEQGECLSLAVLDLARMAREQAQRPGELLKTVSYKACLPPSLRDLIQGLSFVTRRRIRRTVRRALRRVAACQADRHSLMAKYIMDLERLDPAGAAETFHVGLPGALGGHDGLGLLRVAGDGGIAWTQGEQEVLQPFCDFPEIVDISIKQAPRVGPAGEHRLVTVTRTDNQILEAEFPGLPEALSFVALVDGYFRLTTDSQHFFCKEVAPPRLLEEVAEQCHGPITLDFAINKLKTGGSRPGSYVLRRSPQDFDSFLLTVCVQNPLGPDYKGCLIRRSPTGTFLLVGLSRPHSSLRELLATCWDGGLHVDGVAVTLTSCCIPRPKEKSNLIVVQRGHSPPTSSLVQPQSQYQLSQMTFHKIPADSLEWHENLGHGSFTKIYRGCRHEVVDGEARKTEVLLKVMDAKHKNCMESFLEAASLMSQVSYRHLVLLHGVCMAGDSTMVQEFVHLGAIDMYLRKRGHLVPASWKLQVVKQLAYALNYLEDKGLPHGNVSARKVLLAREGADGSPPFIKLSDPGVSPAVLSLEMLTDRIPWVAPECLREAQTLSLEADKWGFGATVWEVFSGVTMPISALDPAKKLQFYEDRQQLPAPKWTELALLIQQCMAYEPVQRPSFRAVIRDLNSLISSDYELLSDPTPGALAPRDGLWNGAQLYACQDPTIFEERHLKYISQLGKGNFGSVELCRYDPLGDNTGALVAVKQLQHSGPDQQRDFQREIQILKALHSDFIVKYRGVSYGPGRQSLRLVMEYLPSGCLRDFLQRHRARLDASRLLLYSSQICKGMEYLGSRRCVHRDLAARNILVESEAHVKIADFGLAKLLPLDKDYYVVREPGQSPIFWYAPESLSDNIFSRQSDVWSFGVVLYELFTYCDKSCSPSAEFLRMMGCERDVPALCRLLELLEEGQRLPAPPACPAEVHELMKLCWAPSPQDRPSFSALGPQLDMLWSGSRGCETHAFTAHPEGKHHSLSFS
As to the kind of experiment: Inhibition of a panel of kinases, in vitro HotSpot kinase assay: JAK3. How it is done: (§1) The degree of inhibition of a panel of kinases is determined using the in vitro HotSpot kinase assay (purified enzymes, ^33P-ATP, an appropriate substrate and 1 uM ATP).

For the next assay, the target named is EGFR (Homo sapiens, UniProt P00533). Nature of the assay: Inhibition of a panel of kinases, in vitro HotSpot kinase assay: EGFR. How it is done: as §1
The target of another assay is Btk (Homo sapiens, UniProt Q06187). Nature of the assay: Btk kinase activity, TR-FRET assay. Conditions: read-out: Btk (IC50). An outline of the steps: (§2)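 Enzyme (Btk 0.5 nM; Lck 6 nM) reacted 1 h with inhibitor, ATP at Km and biotin-peptide substrate in pH 7.4 buffer, 10% DMSO. Phosphopeptide detected by Eu-p-Tyr100 antibody plus streptavidin-APC (665/615 nm). IC50 calculated from fitted Ki(app) via ATP/Km correction plus half total enzyme.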

Another assay has as its target Lck (Homo sapiens, UniProt P06239). Nature of the assay: Lck kinase activity, TR-FRET assay. Conditions: read-out: LCK (IC50). An outline of the steps: as §2

EGFR, sequence (P00533 25-1210): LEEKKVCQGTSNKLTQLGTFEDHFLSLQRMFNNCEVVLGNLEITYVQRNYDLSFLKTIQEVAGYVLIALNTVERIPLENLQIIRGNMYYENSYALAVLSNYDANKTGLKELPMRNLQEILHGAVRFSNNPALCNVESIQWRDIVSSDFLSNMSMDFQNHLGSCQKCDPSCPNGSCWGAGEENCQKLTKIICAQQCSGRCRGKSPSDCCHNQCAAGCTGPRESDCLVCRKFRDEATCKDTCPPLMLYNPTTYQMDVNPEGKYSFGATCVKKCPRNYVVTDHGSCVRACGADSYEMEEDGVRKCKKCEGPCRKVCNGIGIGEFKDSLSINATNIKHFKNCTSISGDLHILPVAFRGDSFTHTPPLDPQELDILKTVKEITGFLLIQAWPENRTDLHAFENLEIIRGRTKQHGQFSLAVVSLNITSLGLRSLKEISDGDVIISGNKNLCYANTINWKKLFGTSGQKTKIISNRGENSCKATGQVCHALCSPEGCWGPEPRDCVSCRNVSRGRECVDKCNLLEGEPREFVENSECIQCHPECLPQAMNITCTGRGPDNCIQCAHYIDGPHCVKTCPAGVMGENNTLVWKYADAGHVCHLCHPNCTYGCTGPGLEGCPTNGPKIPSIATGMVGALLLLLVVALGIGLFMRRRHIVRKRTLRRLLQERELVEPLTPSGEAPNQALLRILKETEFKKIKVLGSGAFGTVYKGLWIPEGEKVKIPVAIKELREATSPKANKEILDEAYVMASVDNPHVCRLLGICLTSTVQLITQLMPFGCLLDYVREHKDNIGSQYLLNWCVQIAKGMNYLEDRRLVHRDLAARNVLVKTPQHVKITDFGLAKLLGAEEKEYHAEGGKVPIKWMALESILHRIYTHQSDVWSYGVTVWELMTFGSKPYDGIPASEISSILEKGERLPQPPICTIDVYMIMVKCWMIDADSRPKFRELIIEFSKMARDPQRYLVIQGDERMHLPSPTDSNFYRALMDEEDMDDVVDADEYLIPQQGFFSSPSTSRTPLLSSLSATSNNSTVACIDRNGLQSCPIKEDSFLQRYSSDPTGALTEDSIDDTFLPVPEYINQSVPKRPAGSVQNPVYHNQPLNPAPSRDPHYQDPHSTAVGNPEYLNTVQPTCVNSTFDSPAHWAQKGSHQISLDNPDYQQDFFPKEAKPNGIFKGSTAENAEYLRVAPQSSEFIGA
Btk, sequence (Q06187 whole entry): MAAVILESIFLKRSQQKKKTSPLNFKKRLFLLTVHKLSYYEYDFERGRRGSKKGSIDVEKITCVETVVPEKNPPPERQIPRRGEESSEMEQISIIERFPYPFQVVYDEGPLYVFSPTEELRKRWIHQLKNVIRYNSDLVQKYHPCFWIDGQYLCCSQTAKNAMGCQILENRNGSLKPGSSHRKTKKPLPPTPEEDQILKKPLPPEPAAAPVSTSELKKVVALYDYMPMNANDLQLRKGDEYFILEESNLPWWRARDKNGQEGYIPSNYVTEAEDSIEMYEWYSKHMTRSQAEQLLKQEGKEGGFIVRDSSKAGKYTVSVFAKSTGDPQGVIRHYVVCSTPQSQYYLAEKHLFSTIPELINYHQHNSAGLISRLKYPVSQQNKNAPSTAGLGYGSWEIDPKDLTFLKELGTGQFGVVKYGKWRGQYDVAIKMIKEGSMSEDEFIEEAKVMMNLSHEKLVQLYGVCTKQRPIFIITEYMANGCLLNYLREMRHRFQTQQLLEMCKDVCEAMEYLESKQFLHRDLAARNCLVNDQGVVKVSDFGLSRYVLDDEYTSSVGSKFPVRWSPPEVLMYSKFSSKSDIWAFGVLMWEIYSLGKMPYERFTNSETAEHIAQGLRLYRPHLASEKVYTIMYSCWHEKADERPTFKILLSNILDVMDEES
Lck, sequence (P06239 whole entry, species assumed): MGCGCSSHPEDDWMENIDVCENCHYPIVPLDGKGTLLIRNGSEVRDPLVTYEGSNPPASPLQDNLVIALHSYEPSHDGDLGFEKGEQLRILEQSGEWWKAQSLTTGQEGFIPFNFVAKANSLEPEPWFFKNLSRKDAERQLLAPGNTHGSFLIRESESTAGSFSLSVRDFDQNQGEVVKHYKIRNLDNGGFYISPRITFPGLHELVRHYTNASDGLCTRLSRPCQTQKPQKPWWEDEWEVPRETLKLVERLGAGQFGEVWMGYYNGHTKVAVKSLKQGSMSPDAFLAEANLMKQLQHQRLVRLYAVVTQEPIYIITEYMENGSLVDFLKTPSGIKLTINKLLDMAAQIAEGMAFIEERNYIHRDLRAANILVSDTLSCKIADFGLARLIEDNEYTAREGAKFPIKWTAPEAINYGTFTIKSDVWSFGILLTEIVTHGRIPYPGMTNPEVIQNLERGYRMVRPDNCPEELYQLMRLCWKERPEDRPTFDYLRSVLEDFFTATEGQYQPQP

Turning to `Cc1cccc2nc(-c3ccc(Oc4ccnc5[nH]nc(N[C@@H]6CCCN(C(=O)C7CC7)C6)c45)cc3)oc12` [compound 220, (3R)-1-cyclopropanecarbonyl-N-{4-[4-(7-methyl-1,3-benzoxazol-2-yl)phenoxy]-1H-pyrazolo[3,4-b]pyridin-3-yl}piperidin-3-amine], the IC50 against JAK3 is over 10 µM; against EGFR it was over 10 µM; on Btk, 1 to 10 µM; on Lck, over 10 µM.
As for `Cc1cnc(NC(=O)c2ccc(Oc3ccnc4[nH]nc(N[C@@H]5CCN(C(=O)C6CCN(C)CC6)C5)c34)cc2)s1` [compound 221, N-(5-methyl-1,3-thiazol-2-yl)-4-[(3-{[(3R)-1-(1-methylpiperidine-4-carbonyl)pyrrolidin-3-yl]amino}-1H-pyrazolo[3,4-b]pyridin-4-yl)oxy]benzamide], the IC50 was over 10 µM against JAK3, 1 to 10 µM on EGFR, under 0.1 µM at Btk and 0.1 to 1 µM at Lck.
With `CCC(=O)N1CCC[C@@H](Nc2n[nH]c3nccc(Oc4ccc(-c5nc6ccccc6s5)cc4)c23)C1` [compound 222, 1-[(3R)-3-({4-[4-(1,3-benzothiazol-2-yl)phenoxy]-1H-pyrazolo[3,4-b]pyridin-3-yl}amino)piperidin-1-yl]propan-1-one], the IC50 against JAK3 was over 10 µM; on EGFR, over 10 µM; on Btk, 0.1 to 1 µM; at Lck, 0.1 to 1 µM.
Take `CCNC(=O)N1CCC[C@@H](Nc2n[nH]c3nccc(Oc4ccc(-c5nc6ccccc6[nH]5)cc4)c23)C1` [compound 224, (3R)-3-({4-[4-(1H-1,3-benzodiazol-2-yl)phenoxy]-1H-pyrazolo[3,4-b]pyridin-3-yl}amino)-N-ethylpiperidine-1-carboxamide]: the IC50 against JAK3 is over 10 µM; at EGFR, over 10 µM; at Btk it was 1 to 10 µM; at Lck, 1 to 10 µM.
In the case of `CCC(=O)N1CCC[C@@H](Nc2n[nH]c3nccc(Oc4ccc(C(=O)Nc5cc(C(F)(F)F)ccn5)cc4)c23)C1` [compound 225, 4-[(3-{[(3R)-1-propanoylpiperidin-3-yl]amino}-1H-pyrazolo[3,4-b]pyridin-4-yl)oxy]-N-[4-(trifluoromethyl)pyridin-2-yl]benzamide], the 50% inhibitory concentration (IC50) against JAK3 was over 10 µM; at EGFR, 0.1 to 1 µM; at Btk it was under 0.1 µM; on Lck, 0.1 to 1 µM.
With `CC1(C(=O)N2CCC[C@@H](Nc3n[nH]c4nccc(Oc5ccc(C(=O)Nc6nc7ccccc7s6)cc5)c34)C2)COC1` [compound 226, N-(1,3-benzothiazol-2-yl)-4-[(3-{[(3R)-1-(3-methyloxetane-3-carbonyl)piperidin-3-yl]amino}-1H-pyrazolo[3,4-b]pyridin-4-yl)oxy]benzamide], the concentration for half-maximal inhibition (IC50) is 1 to 10 µM at JAK3, over 10 µM at EGFR, under 0.1 µM at Btk and 0.1 to 1 µM at Lck.
In the case of `CCNC(=O)N1CCC[C@@H](Nc2n[nH]c3nccc(Oc4ccc(C(=O)Nc5cc(C)ccn5)cc4)c23)C1` [compound 227, (R)-N-ethyl-3-(4-(4-(4-methylpyridin-2-ylcarbamoyl)phenoxy)-1H-pyrazolo[3,4-b]pyridin-3-ylamino)piperidine-1-carboxamide], the IC50 was over 10 µM against JAK3, over 10 µM on EGFR, under 0.1 µM at Btk and 1 to 10 µM on Lck.
As for `CCNC(=O)N[C@@H]1CCCN(c2n[nH]c3nccc(Oc4ccc(C(=O)Nc5cc(C(F)(F)F)ccn5)cc4)c23)C1` [compound 228, 4-({3-[(3R)-3-[(ethylcarbamoyl)amino]piperidin-1-yl]-1H-pyrazolo[3,4-b]pyridin-4-yl}oxy)-N-[4-(trifluoromethyl)pyridin-2-yl]benzamide], the IC50 against JAK3 was over 10 µM; at EGFR, 1 to 10 µM; on Btk it was under 0.1 µM; on Lck it was 0.1 to 1 µM.
For `CCNC(=O)N1CCC[C@@H](Nc2n[nH]c3nccc(Oc4ccc(C(=O)Nc5ccccn5)cc4)c23)C1` [compound 229, (3R)-N-ethyl-3-[(4-{4-[(pyridin-2-yl)carbamoyl]phenoxy}-1H-pyrazolo[3,4-b]pyridin-3-yl)amino]piperidine-1-carboxamide] the same measures were over 10 µM, 1 to 10 µM, under 0.1 µM and over 10 µM.
For `CN(C)CCCC(=O)N[C@@H]1CCCN(c2n[nH]c3nccc(Oc4ccc(C(=O)Nc5cc(C(F)(F)F)ccn5)cc4)c23)C1` [compound 230, 4-({3-[(3R)-3-[4-(dimethylamino)butanamido]piperidin-1-yl]-1H-pyrazolo[3,4-b]pyridin-4-yl}oxy)-N-[4-(trifluoromethyl)pyridin-2-yl]benzamide], the IC50 is over 10 µM against JAK3, over 10 µM at EGFR, 0.1 to 1 µM at Btk and over 10 µM at Lck.
As to `CCC(=O)N1CCC[C@@H](Nc2n[nH]c3nccc(Oc4ccc(-c5nc6ccccc6[nH]5)cc4)c23)C1` [compound 231, 1-[(3R)-3-({4-[4-(1H-1,3-benzodiazol-2-yl)phenoxy]-1H-pyrazolo[3,4-b]pyridin-3-yl}amino)piperidin-1-yl]propan-1-one], the IC50 against JAK3, on EGFR, on Btk and at Lck was over 10 µM throughout.
With `O=C(Nc1ccccn1)c1ccc(Oc2ccnc3[nH]nc(N[C@@H]4CCCN(C(=O)C5CC5)C4)c23)cc1` [compound 232, 4-[(3-{[(3R)-1-cyclopropanecarbonylpiperidin-3-yl]amino}-1H-pyrazolo[3,4-b]pyridin-4-yl)oxy]-N-(pyridin-2-yl)benzamide], the 50% inhibitory concentration (IC50) against JAK3 was over 10 µM; against EGFR, 1 to 10 µM; on Btk, under 0.1 µM; on Lck, over 10 µM.
On to `CN(C)C(=O)N1CCC[C@@H](Nc2n[nH]c3nccc(Oc4ccc(C(=O)Nc5ccccn5)cc4)c23)C1` [compound 233, (3R)-N,N-dimethyl-3-[(4-{4-[(pyridin-2-yl)carbamoyl]phenoxy}-1H-pyrazolo[3,4-b]pyridin-3-yl)amino]piperidine-1-carboxamide], for which the IC50 against JAK3 was over 10 µM; against EGFR, over 10 µM; at Btk, under 0.1 µM; at Lck, over 10 µM.
For `CCNC(=O)N[C@H]1CCCN(c2n[nH]c3nccc(Oc4ccc(C(=O)Nc5cc(C(F)(F)F)ccn5)cc4)c23)C1` [compound 234, 4-({3-[(3S)-3-[(ethylcarbamoyl)amino]piperidin-1-yl]-1H-pyrazolo[3,4-b]pyridin-4-yl}oxy)-N-[4-(trifluoromethyl)pyridin-2-yl]benzamide], the concentration for half-maximal inhibition (IC50) is over 10 µM at JAK3, over 10 µM against EGFR, 0.1 to 1 µM at Btk and over 10 µM at Lck.
In the case of `C=CC(=O)N1CCC[C@@H](Nc2n[nH]c3nccc(Oc4cccc(C(=O)Nc5ccc(C(C)C)c(C)c5)c4)c23)C1` [compound 250, (R)-3-(3-(1-acryloylpiperidin-3-ylamino)-1H-pyrazolo[3,4-b]pyridin-4-yloxy)-N-(4-isopropyl-3-methylphenyl)benzamide], the IC50 at JAK3, against EGFR, on Btk and at Lck was under 0.1 µM in each case.
